Experimental data taken from US10092657B2, “Opsonized β-glucan preparations and methods” (Biothera, Inc., priority 2011, dated 2018).

Legend:
[1] = molecular target: T1, iC3b (Homo sapiens, UniProt P01024); assay: Immunoprecipitation of PGG β-glucan with BfD IV and detection of pulled-down iC3b; format: binding
T1 construct: from tissue
Experimental: PGG β-glucan or dextran at concentration 60-80 mg/mL was incubated with regular or HI serum at 1:10 volume ratio for 30 minutes in a 37° C. water bath. BfD IV Ab was added to the serum/β-glucan mixture and incubated at room temperature for additional 30 minutes. Magnetic beads conjugated with rat anti-mouse IgM (DYNABEADS, Invitrogen, Camarillo, Calif.) were washed three times with DPBS and incubated with serum-PGG β-glucan-BfD IV mixture for another 30 minutes at room temperature. The beads were separated magnetically and iC3b pulled-down along with immunoprecipitated PGG was probed using FITC-conjugated complement C3 Ab by flow cytometer.

[2] = tested on: human monocytes; assay: iC3b staining on PGG β-glucan-bound monocytes (flow cytometry); format: cell-based; conditions: 100 μg/mL; 10% serum; 37° C.; two hours
Description: (§1) Binding of PGG β-glucan to neutrophils and PBMC was done as above. iC3b deposition on these cells was detected by staining with a neo-epitope specific anti-iC3b Ab and PE-conjugated goat anti-mouse IgG and analyzing by flow cytometry.

[3] = molecular target: T1, iC3b; assay: ELISA for iC3b deposition on immobilized PGG β-glucan; format: binding; conditions: 300 μg/mL immobilized
Experimental: PGG β-glucan or dextran was immobilized on wells of a 96-well polystyrene plate (COSTAR, Coming, Inc., Lowell, Mass.) by drying the glucans at 50° C. followed by UV cross-linking. The glucan-coated plate was first blocked with 1% BSA before incubation with untreated serum or serum undergone various treatments as described in binding studies, diluted 1:2 with wash buffer (PBS/0.05% Tween-20) for 30 minutes at 37° C. After washing the serum from the plate, the bound iC3b was probed using the anti-iC3b monoclonal antibody followed by biotin-labeled goat anti-mouse IgG Ab. The amount of immobilized biotin-labeled antibody was determined using streptavidin peroxidase and TMB substrate solution (KPL, Gaithersburg, Md.). OD450 of each well was measured with the spectrophotometer SpectraMAX 250 (Molecular Devices, Sunnyvale, Calif.). Fold change was calculated as OD450 of wells containing immobilized β-glucan divided by OD450 of wells containing no β-glucan, both incubated in the presence of treated or untreated serum.

[4] = tested on: human neutrophils; assay: iC3b staining on PGG β-glucan-bound neutrophils (flow cytometry, confocal microscopy); format: cell-based
Experimental: as §1
Enriched neutrophils, resuspended at 1×10^6 cells/mL in either RPMI supplemented with 20% serum or heat-inactivated serum, were mixed with PGG β-glucan before being applied to a 10 mm glass cover slip placed in the well of a 24-well plate. The plate was incubated in a 37° C., humidified 5% CO2 incubator for one hour. Unbound cells and PGG β-glucan were removed by washing with warmed PBS, and bound cells were subsequently fixed in 1% formaldehyde at room temp for 15 minutes. Cells were blocked with FCR blocking agent prior to staining with BFD IV and anti-iC3b monoclonal antibody for 30 minutes at 4° C., and followed by the secondary staining antibodies Cy5-conjugated goat anti-mouse IgM and Cy3-conjugated goat anti-mouse IgG at 4° C. for 30 minutes. Cells were penneabilized with 0.1% ice-cold TritonX-100 for three minutes on ice, stained with DAPI on ice for five minutes before mounting onto slides. Images were analyzed and acquired with Olympus FluoView 1000 IX2 Inverted confocal microscope. Images were adjusted equally in Adobe Photoshop (Adobe Systems Inc., San Jose, Calif.).

T1 sequence (P01024 749-1303 limits assumed): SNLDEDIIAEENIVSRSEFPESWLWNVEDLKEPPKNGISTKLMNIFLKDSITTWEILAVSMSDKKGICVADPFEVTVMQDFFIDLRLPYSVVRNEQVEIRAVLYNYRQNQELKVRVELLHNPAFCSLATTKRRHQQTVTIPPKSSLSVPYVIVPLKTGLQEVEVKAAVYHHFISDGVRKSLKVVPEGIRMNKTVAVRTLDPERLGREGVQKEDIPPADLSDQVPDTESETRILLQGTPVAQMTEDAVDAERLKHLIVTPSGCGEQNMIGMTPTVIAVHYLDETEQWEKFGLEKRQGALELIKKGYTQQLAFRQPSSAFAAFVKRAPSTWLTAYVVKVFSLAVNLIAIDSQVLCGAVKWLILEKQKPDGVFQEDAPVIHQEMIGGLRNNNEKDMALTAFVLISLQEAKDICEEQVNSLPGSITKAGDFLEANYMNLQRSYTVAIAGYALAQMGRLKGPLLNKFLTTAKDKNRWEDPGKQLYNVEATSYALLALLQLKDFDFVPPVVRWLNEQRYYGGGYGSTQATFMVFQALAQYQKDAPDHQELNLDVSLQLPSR
T1 sequence (P01024 23-667 partner limits assumed): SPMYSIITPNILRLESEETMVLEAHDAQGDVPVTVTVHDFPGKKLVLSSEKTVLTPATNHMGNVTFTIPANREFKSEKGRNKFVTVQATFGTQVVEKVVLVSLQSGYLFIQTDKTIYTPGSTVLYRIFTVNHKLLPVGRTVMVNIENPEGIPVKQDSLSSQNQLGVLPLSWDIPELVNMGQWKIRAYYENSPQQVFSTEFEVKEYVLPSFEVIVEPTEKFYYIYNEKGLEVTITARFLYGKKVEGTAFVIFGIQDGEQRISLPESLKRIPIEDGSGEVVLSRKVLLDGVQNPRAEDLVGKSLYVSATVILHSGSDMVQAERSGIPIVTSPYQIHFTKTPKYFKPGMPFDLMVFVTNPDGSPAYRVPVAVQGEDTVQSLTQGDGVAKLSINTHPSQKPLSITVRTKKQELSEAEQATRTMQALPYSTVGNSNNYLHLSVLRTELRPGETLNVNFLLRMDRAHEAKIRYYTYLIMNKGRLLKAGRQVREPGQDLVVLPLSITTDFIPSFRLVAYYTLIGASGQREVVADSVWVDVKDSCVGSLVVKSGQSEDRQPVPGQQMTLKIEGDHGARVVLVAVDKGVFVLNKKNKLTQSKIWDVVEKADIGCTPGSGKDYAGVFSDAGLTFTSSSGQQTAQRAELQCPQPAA
T1 sequence (P01024 1321-1663 partner limits assumed): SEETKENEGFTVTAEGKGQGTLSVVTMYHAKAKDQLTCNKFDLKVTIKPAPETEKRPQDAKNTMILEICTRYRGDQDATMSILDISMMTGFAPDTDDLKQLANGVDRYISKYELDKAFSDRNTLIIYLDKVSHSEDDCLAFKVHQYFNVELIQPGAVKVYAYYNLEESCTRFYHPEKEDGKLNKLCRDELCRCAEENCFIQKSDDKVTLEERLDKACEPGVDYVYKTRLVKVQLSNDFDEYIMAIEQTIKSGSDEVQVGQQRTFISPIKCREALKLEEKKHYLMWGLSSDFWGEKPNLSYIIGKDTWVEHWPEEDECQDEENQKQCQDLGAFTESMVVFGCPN

iC3b pulled down with BfD IV immunoprecipitate ([1]; glucan incubated with HI serum): no iC3b was detected
iC3b pulled down with BfD IV immunoprecipitate ([1]; glucan incubated with regular serum): iC3b protein was pulled-down
Fold increase of iC3b detected on immobilized glucan compared to background ([3]; HI serum 30 minutes at 37° C.): significantly less iC3b detected
Fold increase of iC3b detected on immobilized glucan compared to background ([3]; regular serum 30 minutes at 37° C.): significantly higher
Substance: β(1,6)-[poly-1,3)-D-glucopyranosyl]-poly-β(1,3)-D-glucopyranose [PGG β-glucan]
iC3b staining on cells incubated with β-glucan vs serum alone [2]: increased staining of iC3b
iC3b staining on cells incubated with β-glucan vs serum alone ([4]; 200 μg/mL, 10% serum, 37° C., two hours): increased staining of iC3b
Co-localization of bound glucan and iC3b (confocal microscopy) ([4]; BfD IV and anti-iC3b double staining): co-localized
